Here are results for two molecules from US6703376B2, “Use of uridine triphosphates and related compounds for the prevention and treatment of pneumonia in immobilized patients” (Inspire Pharmaceuticals, Inc., priority 1996, dated 2004).

Like-named read-outs stand apart in the source and are kept apart here. A value given as a limit tells only on which side of the number the result lay.

One data set relates to conscious adult ewes. Put plainly: Trachael mucus velocity (TMV) study, fluoroscopy of radiopaque disks. Format: in vivo, sheep. To be noted: for maximal effect on tracheal mucus velocity: 400 μmole (4 ml of 10^−1M) nebulized, mean±standard error, n=6, 15 min after administration; for effect on tracheal mucus velocity: doses 4 to 400 μmole; for effect on tracheal mucus velocity / duration of significant effects on TMV after administration / time of maximal effect on TMV after administration: nebulized; for duration of significant effects on TMV after administration: highest dose (400 μmole); for time of maximal effect on TMV after administration: adult ewes. The source says: The effects of UTP and U2P4 on trachael mucus velocity (TMV) were studied using the following procedures: The nasal passages of conscious adult ewes were anesthetized with a 2% lidocaine solution. After local anesthesia was produced, a modified endotracheal tube 7.5 mm was placed such that the cuff was just below the vocal cords (verified by fluoroscopy). Inspired air was warmed and humidified. The cuff of the endotracheal tube was inflated only during administation of the test compound to minimize possible impairment of TMV by the cuff. Test compounds were administered by nebulization in a volume of 4 mL over a period of 10-12 min. TMV was measured by fluroscopy. Ten to twenty radiopaque disks (Teflon®/bismuth trioxide; 1 mm diameter, 0.8 mm thick, weighing 1.8 mg) were introduced into the trachea through a modified suction catheter with a puff of compressed air (3-4 L/min). Velocities of the individual disks were recorded on videotape from a portable image intensifier unit. Individual disk velocities were calculated by measuring the distance traveled by each disk during a 1 min observation period. Values reported are the means of the individual disk velocities. A collar was worn by the sheep which was used as a standard to correct for magnification errors inherent in the fluoroscope.

The subject of data set [1] is human nasal epithelial cells. Particulars: cited from earlier work.
For the next data set, the system named is healthy adult ewes. Put plainly: Mucociliary clearance study, 99mTc-HSA clearance by gamma camera. The format is in vivo, sheep. Particulars: 400 μmole nebulized; initial results n=2; compared to saline control. The protocol:
In this study healthy adult ewes were given 99 mTc-labeled human serum albumin (99 mTc-HSA) via a nebulized aerosol. The 99 mTC-HSA (20 mCi) was administered over 5 min through a nasotracheal tube introduced under local anesthesia with 2% lidocaine. After administration of the 99 mTc-HSA, the animals were given a test compound: either UTP or U2P4. Test compounds were administered by nebulization in a volume of 4 mL over a period of 10-12 min. The test compounds were given at a dose of 400 μmole. After the administration of the test compound, the animals were extubated. Clearance of the radiolabeled particles was monitored with a gamma camera. Measurements were made at 0, 5, 10, 15, 20, 25, 30, 35, 40, 45, 50, 55, 60, […], 90, 105 and 120 min.

The subject of data set [2] is goblet cells in human airway epithelial explants. To be noted: tissues from healthy individuals and patients with CF; cited from earlier work.
Another data set relates to normal volunteers. Particulars: acute; cited from earlier work.
The subject of data set [3] is cultured human epithelial cells. Particulars: cells from normal adult humans and CF patients; cited from earlier work.
The subject of data set [4] is anesthetized and ventilated dogs. Particulars: cited from earlier work.

For the molecule `O=c1ccn([C@@H]2O[C@H](COP(=O)(O)OP(=O)(O)OP(=O)(O)O)[C@@H](O)[C@H]2O)c(=O)[nH]1` [UTP, uridine 5′-triphosphate], in the data set on conscious adult ewes, the “maximal effect on tracheal mucus velocity” value is 125±7 % of baseline, the “effect on tracheal mucus velocity” value is “significant dose-related effects”, the “duration of significant effects on TMV after administration” value is given as “up to 4 h” and the “time of maximal effect on TMV after administration” value was 15 min. For the same molecule, in data set [1] (cultured nasal epithelial cells from cystic fibrosis (CF) patients), the Cl- secretion result is “This response was also observed”. The Cl- secretion entry in data set [1] (normal human nasal epithelial cells, apical application) is on record as “increased Cl- secretion in a concentration-dependent manner”. Further, the “clearance of radiolabeled particles (99mTc-HSA)” value in the data set with healthy adult ewes is “promote clearance of the radiolabeled particles”. For the same molecule, in data set [2], the “mucin secretion by goblet cells” value is “increase the rate and total amount of mucin secretion”. The “improvement of mucociliary clearance (MCC)” value in the data set with normal volunteers is given as 2.5 fold. For the same molecule, the cilia beat frequency result in data set [3] is “increase in cilia beat frequency”. In data set [4] (aerosol, 10^−2 M and 10^−1 M in nebulizer), the “effects on peak inspiratory airway pressure, mean pulmonary artery pressure, heart rate, cardiac output, thoracic aortic pressure, electrocardiogram, arterial blood gases” value is reported as “no significant effects”. Besides, in data set [4] (intravenous, sequential doses 0.1, 1, 3 and 5 mmoles/kg infused over 10 minutes), the “changes in mean pulmonary artery pressure, heart rate, cardiac output, mean arterial pressure” value is on record as “no significant changes”.

For the molecule `O=c1ccn([C@@H]2O[C@H](COP(=O)(O)OP(=O)(O)OP(=O)(O)OP(=O)(O)OC[C@H]3O[C@@H](n4ccc(=O)[nH]c4=O)[C@H](O)[C@@H]3O)[C@@H](O)[C@H]2O)c(=O)[nH]1` [U2P4, P1,P4-di(uridine-5′)tetraphosphate], in the data set with conscious adult ewes, the “maximal effect on tracheal mucus velocity” value is on record as 144±9 % of baseline, the “effect on tracheal mucus velocity” value is “significant dose-related effects”, the “duration of significant effects on TMV after administration” value is reported as at most 2 h and the “time of maximal effect on TMV after administration” value is listed as 15 min. Moreover, the “clearance of radiolabeled particles (99mTc-HSA)” value in the data set on healthy adult ewes is “promote clearance of the radiolabeled particles”.
